Results as given in US8877798B2, “1-aryl-3-azabicyclo[3.1.0]hexanes: preparation and use to treat neuropsychiatric disorders” (priority 2005, dated 2014).
Like-named read-outs stand apart in the source and are kept apart here.

Columns and labels:
[1] = biological target: 5-HT uptake, rat brain synaptosomes (Rattus norvegicus (Rat), UniProt P31652); test: 5-HT uptake inhibition in rat brain synaptosomes; assay type: biochemical
Protocol: (§1) The effects of exemplary compounds of the invention on the cellular uptake of norepinephrine (NE), dopamine (DA) and serotonin (5-HT) were tested in preparations of synaptosomes from different rat brain regions using the previously-reported techniques referenced below.
(§2) Whole brains were obtained from normal rats. Synaptosomal preparations were made from either whole brain (5-HT), striatum (DA) or hypothalamus (NE) by gentle disruption in 10 volumes (w/v) of 0.32 M sucrose (0-4° C.) using a Teflon-glass homogenizer. The homogenate was then centrifuged at 1000×g for 10 min. The supernatant was retained and centrifuged at 23000 g for 20 min. The resulting pellet was gently resuspended in 200 volumes of 0.32 M sucrose (0-4° C.) using the Teflon-glass homogenizer. Aliquots (250 μL) of this preparation were added to tubes, along with 0.2 μCi/mL of [^3H]5-HT, [^3H]DA, or [^3H]NE, 200 μL of the test compounds (to yield final concentrations of 100 nM, 300 nM, 1 μM, 3 μM, 10 μM, 30 μM or 100 μM) and 1 mL of Krebs-Ringer bicarbonate buffer (pH 7.4). The mixtures were incubated for either 15 (DA and 5-HT uptake) or 20 (NE uptake) minutes at 37° C. At the end of this period, the assay was terminated by rapid filtration over Whatman GF/C glass fiber filters. The filters were rinsed 3 times with 4 ml of Krebs-Ringer bicarbonate buffer (0-4° C.), and the radioactivity retained on the filters measured by liquid scintillation spectrometry.
(§3) Each assay was run according to the description of the respective publications cited above, and according to the following parameters/reagents/conditions.
(§4) In each experiment, the respective reference compound was tested concurrently with the test compounds in order to assess the assay suitability. It was tested at several concentrations (for IC50 value determination). The assay was considered valid if the suitability criteria were met, in accordance with the corresponding Standard Operating Procedure.
(§5) Individual and mean values are presented with the results. The IC50 values (concentration causing a half-maximal inhibition of control values) were determined by non-linear regression analysis of the inhibition curves using Hill equation curve fitting.

NET = NET (Homo sapiens (Human), UniProt P23975); test: NET binding
SERT = SERT (Homo sapiens (Human), UniProt P31645); test: SERT binding
[2] = biological target: dopamine (DA) uptake, rat striatum synaptosomes (Rattus norvegicus (Rat), UniProt P23977); test: Dopamine (DA) uptake inhibition in rat striatum synaptosomes; assay type: biochemical
dopamine (DA) uptake, rat striatum synaptosomes, sequence (P23977 whole entry): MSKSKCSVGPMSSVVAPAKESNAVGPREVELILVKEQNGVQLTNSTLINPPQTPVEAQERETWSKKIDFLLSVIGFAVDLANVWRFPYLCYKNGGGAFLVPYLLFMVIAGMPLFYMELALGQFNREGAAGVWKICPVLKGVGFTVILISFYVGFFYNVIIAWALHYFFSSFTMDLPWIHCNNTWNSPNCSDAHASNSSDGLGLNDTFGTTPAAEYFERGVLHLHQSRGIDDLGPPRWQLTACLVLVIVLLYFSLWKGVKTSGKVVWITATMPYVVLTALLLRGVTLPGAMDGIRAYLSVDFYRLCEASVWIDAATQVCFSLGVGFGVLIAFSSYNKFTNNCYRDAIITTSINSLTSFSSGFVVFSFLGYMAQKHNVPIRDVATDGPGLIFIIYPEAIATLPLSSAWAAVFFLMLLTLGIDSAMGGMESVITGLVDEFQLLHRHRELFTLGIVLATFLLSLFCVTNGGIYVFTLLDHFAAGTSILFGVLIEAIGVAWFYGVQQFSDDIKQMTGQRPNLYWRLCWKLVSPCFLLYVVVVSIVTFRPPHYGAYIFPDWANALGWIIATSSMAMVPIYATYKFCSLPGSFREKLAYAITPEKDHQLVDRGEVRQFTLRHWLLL
Protocol: as §1, §2, §3, §4
as §5, with “The results of these uptake inhibition assays are expressed below as a percent of control values obtained in the […] of the test compounds. Individual” for “Individual”

DAT = DAT (Homo sapiens (Human), UniProt Q01959); test: DAT binding
[3] = system: reuptake of norepinephrine, serotonin and dopamine; conditions: reported in the literature (Skolnick et al. 2003); cited from earlier work
[4] = [3H]5-HT, rat brain synaptosomes, 15 min at 37° C., read-out: Uptake IC50 (nM) 5-HT

Row | Structure (SMILES) | IC50 [1, 4] | Ki (NET; read-out: Binding NET Ki) | Ki (SERT; read-out: Binding SERT Ki) | IC50 [2] | Ki (DAT; read-out: Binding DAT Ki) | other results
1 | CN1CC2C[C@@]2(c2ccc(Cl)c(Cl)c2)C1 (stereo partly shown) | 23 nM | 81 nM | 16 nM | 120 nM | 105 nM | 
2 | CN1CC2C[C@]2(c2ccc(Cl)c(Cl)c2)C1 (stereo partly shown) | 87 nM | 490 nM | 125 nM | 130 nM | 62 nM | 
3 | CCN1CC2C[C@@]2(c2ccc(Cl)c(Cl)c2)C1 (stereo partly shown) | 56 nM | 32 nM | 88 nM | 80 nM | 13 nM | 
4 | CCN1CC2C[C@]2(c2ccc(Cl)c(Cl)c2)C1 (stereo partly shown) | 45 nM | 585 nM | 113 nM | 190 nM | 46 nM | 
5 | CCCN1CC2CC2(c2ccc(Cl)c(Cl)c2)C1 (stereo not shown) | 470 nM | 1830 nM | 1670 nM | 1000 nM | 250 nM | 
6 | CCCN1CC2C[C@@]2(c2ccc(Cl)c(Cl)c2)C1 (stereo partly shown) | 590 nM | 4000 nM | 2000 nM | 1800 nM | 220 nM | 
7 | CCCN1CC2C[C@]2(c2ccc(Cl)c(Cl)c2)C1 (stereo partly shown) | 390 nM | 1070 nM | 2400 nM | 770 nM | 170 nM | 
8 | CCCCN1CC2CC2(c2ccc(Cl)c(Cl)c2)C1 (stereo not shown) | 1200 nM | 2200 nM | 6100 nM | 78 nM | 240 nM | 
9 | CCCCN1CC2C[C@@]2(c2ccc(Cl)c(Cl)c2)C1 (stereo partly shown) | 3000 nM | 1900 nM | 7600 nM | 2200 nM | 395 nM | 
10 | CCCCN1CC2C[C@]2(c2ccc(Cl)c(Cl)c2)C1 (stereo partly shown) | 2600 nM | 1100 nM | 8900 nM | 1200 nM | 215 nM | 
11 | CC(C)N1CC2CC2(c2ccc(Cl)c(Cl)c2)C1 (stereo not shown) | 30 nM | 827 nM | 124 nM | 260 nM | 39 nM | 
12 | CC(C)N1CC2C[C@@]2(c2ccc(Cl)c(Cl)c2)C1 (stereo partly shown) | 170 nM | 510 nM | 330 nM | 330 nM | 25 nM | 
13 | CC(C)N1CC2C[C@]2(c2ccc(Cl)c(Cl)c2)C1 (stereo partly shown) | 100 nM | 5150 nM | 132 nM | 430 nM | 72 nM | 
14 | Clc1ccc(C23CC2CN(C2CC2)C3)cc1Cl (stereo not shown) | 2600 nM | 9500 nM | 3700 nM | 1500 nM | 1700 nM | 
15 | CC(C)(C)N1CC2CC2(c2ccc(Cl)c(Cl)c2)C1 (stereo not shown) |  |  |  |  |  | IC50 [1]: 240 nM; Ki (NET): 9300 nM; Ki (SERT): 800 nM; IC50 ([2]; [3H]DA, rat striatum synaptosomes, 15 min at 37° C., read-out: Uptake IC50 (nM) DA): 1500 nM; Ki (DAT): 420 nM
16 | CN1CC2CC2(c2ccc(F)cc2F)C1 (stereo not shown) | 1100 nM | 6600 nM |  | 7400 nM |  | 
17 | CN1CC2CC2(c2ccc(F)c(F)c2)C1 (stereo not shown) | 400 nM | 990 nM | 1600 nM | 1800 nM | 1900 nM | 
18 | Fc1ccc(C23CNCC2C3)cc1Cl (stereo not shown) | 310 nM | 1700 nM | 230 nM | 1400 nM | 680 nM | 
19 | Fc1ccc([C@]23CNCC2C3)cc1Cl (stereo partly shown) | 186 nM |  |  | 572 nM |  | 
20 | CN1CC2CC2(c2ccc(F)c(Cl)c2)C1 (stereo not shown) | 79 nM | 350 nM | 190 nM | 770 nM | 640 nM | 
21 | CN1CC2C[C@@]2(c2ccc(F)c(Cl)c2)C1 (stereo partly shown) | 362 nM |  |  | 494 nM |  | 
22 | CN1CC2C[C@]2(c2ccc(F)c(Cl)c2)C1 (stereo partly shown) | 835 nM |  |  |  |  | 

Row | Structure (SMILES) | IC50 [1, 4] | Ki (NET; read-out: Binding NET Ki) | Ki (SERT; read-out: Binding SERT Ki) | IC50 [2] | Ki (DAT; read-out: Binding DAT Ki) | other results
23 | Fc1cc([C@]23CNCC2C3)ccc1Cl (stereo partly shown) | 252 nM |  |  | 420 nM |  | 
24 | CN1CC2C[C@@]2(c2ccc(Cl)c(F)c2)C1 (stereo partly shown) | 413 nM |  |  | 437 nM |  | 
25 | CN1CC2CC2(c2ccc(Cl)cc2Cl)C1 (stereo not shown) | 520 nM | 6200 nM | 500 nM | 10000 nM |  | 
26 | Cc1cc(C23CC2CN(C)C3)ccc1F (stereo not shown) | 200 nM | 920 nM | 540 nM | 370 nM | 2200 nM | 
27 | Cc1ccc(C23CNCC2C3)cc1F (stereo not shown) | 266 nM |  |  | 457 nM |  | 
28 | Cc1ccc([C@]23CNCC2C3)cc1F (stereo partly shown) | 133 nM |  |  | 401 nM |  | 
29 | Cc1ccc(C23CC2CN(C)C3)cc1F (stereo not shown) | 110 nM | 260 nM | 830 nM | 700 nM | 270 nM | 
30 | Cc1ccc([C@@]23CC2CN(C)C3)cc1F (stereo partly shown) | 836 nM |  |  | 383 nM |  | 
31 | Cc1ccc([C@]23CC2CN(C)C3)cc1F (stereo partly shown) | 702 nM |  |  | 917 nM |  | 
32 | CN1CC2CC2(c2ccc([N+](=O)[O-])c(Cl)c2)C1 (stereo not shown) | 790 nM |  | 710 nM |  |  | 
33 | CN1CC2CC2(c2cccc3ccccc23)C1 (stereo not shown) | 119 nM |  |  | 512 nM |  | 
34 | CN1CC2C[C@@]2(c2cccc3ccccc23)C1 (stereo partly shown) |  |  |  | 903 nM |  | 
35 | c1ccc2cc([C@]34CNCC3C4)ccc2c1 (stereo partly shown) |  |  |  | 49 nM |  | IC50 [1]: 65 nM
36 | c1ccc2cc([C@@]34CNCC3C4)ccc2c1 (stereo partly shown) |  |  |  | 98 nM |  | IC50 [1]: 170 nM
37 | CN1CC2CC2(c2ccc3ccccc3c2)C1 (stereo not shown) | 31 nM | 520 nM | 6 nM | 350 nM | 68 nM | 
38 | CN1CC2C[C@@]2(c2ccc3ccccc3c2)C1 (stereo partly shown) | < 10 nM |  |  | 82 nM |  | 
39 | CN1CC2C[C@]2(c2ccc3ccccc3c2)C1 (stereo partly shown) | 117 nM |  |  | 147 nM |  | 
40 | COc1ccc2cc(C34CNCC3C4)ccc2c1 (stereo not shown) | 82 nM |  |  | 208 nM |  | 
41 | COc1ccc2cc(C34CC3CN(C)C4)ccc2c1 (stereo not shown) | 14 nM |  |  | 91 nM |  | 
42 | CCOc1ccc2cc(C34CNCC3C4)ccc2c1 (stereo not shown) | 700 nM |  |  | 563 nM |  | 
43 | CCOc1ccc2cc(C34CC3CN(C)C4)ccc2c1 (stereo not shown) | 210 nM |  |  | 360 nM |  | 
44 | Clc1ccc(C23CNCC2C3)cc1Cl (stereo not shown) [1-(3,4-dichlorophenyl)-3-azabicyclo[3.1.0]hexane] |  |  |  |  |  | inhibition of reuptake of norepinephrine, serotonin and dopamine [3]: inhibit reuptake of norepinephrine, serotonin and dopamine
